Biological target: T1, ΔF508-CFTR (Homo sapiens, UniProt P13569, DEL508-508)
T1 construct: expressed in transfected cells
Test: Membrane potential optical assay (FRET voltage-sensor dyes, VIPR), identification of potentiator compounds
Assay type: cell-based
Details: Table 3, assay not given; for Emax: read-out: % Activity (% Efficacy, relative efficacy)
Procedure, shortened: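 Potentiator screen measured membrane potential via FRET between CC2-DMPE donor and DiSBAC2(3), read on VIPR II. Compound went in with the first addition of chloride-free gluconate bath; cells were ΔF508-CFTR-expressing NIH3T3 mouse fibroblasts, temperature-corrected at 27 °C for 24 h.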

T1 sequence (P13569 with tags, fused parts or gaps DEL508-508): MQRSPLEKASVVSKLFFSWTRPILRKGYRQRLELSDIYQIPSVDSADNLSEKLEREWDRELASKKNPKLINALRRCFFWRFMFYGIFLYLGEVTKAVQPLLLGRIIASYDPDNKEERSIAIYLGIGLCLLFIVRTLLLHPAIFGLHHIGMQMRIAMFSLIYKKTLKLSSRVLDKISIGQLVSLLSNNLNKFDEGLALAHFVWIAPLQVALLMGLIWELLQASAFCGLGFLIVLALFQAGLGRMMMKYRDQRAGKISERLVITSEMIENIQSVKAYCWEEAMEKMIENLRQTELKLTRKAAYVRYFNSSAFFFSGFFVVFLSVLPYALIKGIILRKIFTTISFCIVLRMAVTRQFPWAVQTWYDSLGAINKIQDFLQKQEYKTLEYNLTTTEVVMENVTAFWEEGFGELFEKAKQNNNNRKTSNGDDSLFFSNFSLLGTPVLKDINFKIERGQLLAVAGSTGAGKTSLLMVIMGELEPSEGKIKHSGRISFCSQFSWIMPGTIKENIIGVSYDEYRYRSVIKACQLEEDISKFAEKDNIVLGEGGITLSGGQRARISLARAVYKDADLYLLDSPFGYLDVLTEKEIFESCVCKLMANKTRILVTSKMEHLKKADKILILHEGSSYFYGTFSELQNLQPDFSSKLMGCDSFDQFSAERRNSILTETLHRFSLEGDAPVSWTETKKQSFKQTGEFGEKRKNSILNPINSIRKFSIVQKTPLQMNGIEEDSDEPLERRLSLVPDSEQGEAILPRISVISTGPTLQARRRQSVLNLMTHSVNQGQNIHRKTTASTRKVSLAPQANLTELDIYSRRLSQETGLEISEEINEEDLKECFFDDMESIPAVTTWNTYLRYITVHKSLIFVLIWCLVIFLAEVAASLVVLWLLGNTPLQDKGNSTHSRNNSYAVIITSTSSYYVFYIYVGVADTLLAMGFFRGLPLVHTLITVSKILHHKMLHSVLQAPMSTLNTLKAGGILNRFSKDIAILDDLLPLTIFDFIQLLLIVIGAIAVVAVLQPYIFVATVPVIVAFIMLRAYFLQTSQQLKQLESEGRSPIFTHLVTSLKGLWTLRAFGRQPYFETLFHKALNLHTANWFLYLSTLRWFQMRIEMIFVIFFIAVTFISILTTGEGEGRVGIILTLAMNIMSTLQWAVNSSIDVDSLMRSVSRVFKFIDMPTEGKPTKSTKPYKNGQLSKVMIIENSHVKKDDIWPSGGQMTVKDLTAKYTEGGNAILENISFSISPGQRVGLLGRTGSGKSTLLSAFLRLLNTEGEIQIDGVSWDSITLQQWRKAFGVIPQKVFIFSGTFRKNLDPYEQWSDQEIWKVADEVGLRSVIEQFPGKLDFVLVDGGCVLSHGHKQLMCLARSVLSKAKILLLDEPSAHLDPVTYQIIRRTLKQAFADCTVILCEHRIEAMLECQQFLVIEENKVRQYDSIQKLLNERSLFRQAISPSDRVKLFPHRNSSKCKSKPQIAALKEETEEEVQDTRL

Emax | EC50 | Structure (SMILES)
25 to 100% |  | C[C@H]1CCCN1c1ccc(NC(=O)c2c[nH]c3cccc(C(F)(F)F)c3c2=O)c(C(F)(F)F)c1 [Compound 669, (S)-N-(4-(2-methylpyrrolidin-1-yl)-2-(trifluoromethyl)phenyl)-4-oxo-5-(trifluoromethyl)-1,4-dihydroquinoline-3-carboxamide]
25 to 100% |  | CCC(C)c1c[nH]c2cc(NC(=O)c3c[nH]c4ccccc4c3=O)ccc12 (stereo not shown) [Compound 259, 4-oxo-N-(3-sec-butyl-1H-indol-6-yl)-1H-quinoline-3-carboxamide]
25 to 100% |  | O=C(Nc1ccccc1Cc1ccccc1)c1c[nH]c2ccccc2c1=O [Compound 265, N-(2-benzylphenyl)-4-oxo-1H-quinoline-3-carboxamide]
25 to 100% |  | COC(=O)c1c(NC(=O)c2c[nH]c3ccccc3c2=O)csc1C(C)(C)C [Compound 690, methyl 4-[(4-oxo-1H-quinolin-3-yl)carbonylamino]-2-tert-butyl-thiophene-3-carboxylate]
25 to 100% |  | CC(C)(C)c1cc(C(C)(C)C)c(NC(=O)c2c[nH]c3c(F)ccc(F)c3c2=O)cc1O [Compound 718, 5,8-difluoro-N-(5-hydroxy-2,4-ditert-butyl-phenyl)-4-oxo-1H-quinoline-3-carboxamide]
25 to 100% |  | CCc1ccc(NC)cc1NC(=O)c1c[nH]c2ccccc2c1=O [Compound 157, N-(2-ethyl-5-methylamino-phenyl)-4-oxo-1H-quinoline-3-carboxamide]
25 to 100% |  | COC(=O)Nc1ccc(C(C)C)c(NC(=O)c2c[nH]c3ccccc3c2=O)c1 [Compound 239, [4-isopropyl-3-[(4-oxo-1H-quinolin-3-yl)carbonylamino]phenyl]aminoformic acid methyl ester]
< 25% |  | CC1=NN(c2cccc(NC(=O)c3c[nH]c4ccccc4c3=O)c2)C(=O)C1 [Compound 212, N-[3-(3-methyl-5-oxo-1,4-dihydropyrazol-1-yl)phenyl]-4-oxo-1H-quinoline-3-carboxamide]
< 25% |  | O=C(Nc1cccnc1)c1c[nH]c2ccccc2c1=O [Compound 168, 4-oxo-N-(3-pyridyl)-1H-quinoline-3-carboxamide]
25 to 100% |  | CC(C)c1ccc(NC(=O)c2c[nH]c3ccccc3c2=O)cc1N(C)C [Compound 117, N-(3-dimethylamino-4-isopropyl-phenyl)-4-oxo-1H-quinoline-3-carboxamide]
25 to 100% |  | Cc1cc2cc(NC(=O)c3c[nH]c4ccccc4c3=O)ccc2[nH]1 [Compound 230, N-(2-methyl-1H-indol-5-yl)-4-oxo-1H-quinoline-3-carboxamide]
25 to 100% |  | CCc1cc2cc[nH]c2cc1NC(=O)c1c[nH]c2ccccc2c1=O [Compound 351, N-(5-ethyl-1H-indol-6-yl)-4-oxo-1H-quinoline-3-carboxamide]
> 100% |  | COc1cc2[nH]cc(C(=O)Nc3cc(O)c(C(C)(C)C)cc3C(C)(C)C)c(=O)c2cc1F [Compound 617, 6-fluoro-N-(5-hydroxy-2,4-ditert-butyl-phenyl)-7-methoxy-4-oxo-1H-quinoline-3-carboxamide]
< 25% |  | O=C(Nc1ccc2[nH]nnc2c1)c1c[nH]c2ccccc2c1=O [Compound 256, N-(1H-benzotriazol-5-yl)-4-oxo-1H-quinoline-3-carboxamide]
< 25% |  | O=C(Nc1ccc2nccnc2c1)c1c[nH]c2ccccc2c1=O [Compound 443, 4-oxo-N-quinoxalin-6-yl-1H-quinoline-3-carboxamide]
25 to 100% |  | CCOC(=O)c1c(NC(=O)c2c[nH]c3ccccc3c2=O)ccc2cc[nH]c12 [Compound 412, 6-[(4-oxo-1H-quinolin-3-yl)carbonylamino]-1H-indole-7-carboxylic acid ethyl ester]

Emax | EC50 | Structure (SMILES)
25 to 100% |  | COc1cccc(OC)c1-c1cc2cc[nH]c2cc1NC(=O)c1c[nH]c2ccccc2c1=O [Compound 404, N-[5-(2,6-dimethoxyphenyl)-1H-indol-6-yl]-4-oxo-1H-quinoline-3-carboxamide]
25 to 100% | < 10 µM | O=C(Nc1ccccc1-c1ccc(Cl)cc1Cl)c1c[nH]c2ccccc2c1=O [Compound 139, N-[2-(2,4-dichlorophenyl)phenyl]-4-oxo-1H-quinoline-3-carboxamide]
25 to 100% | < 10 µM | CCCc1ccc(NC(=O)c2c[nH]c3ccccc3c2=O)cc1N(C)C [Compound 462, N-(3-dimethylamino-4-propyl-phenyl)-4-oxo-1H-quinoline-3-carboxamide]
25 to 100% |  | O=C(Nc1ccc(N2CCC2)cc1C(F)(F)F)c1c[nH]c2ccccc2c1=O [Compound 689, N-[4-azetidin-1-yl-2-(trifluoromethyl)phenyl]-4-oxo-1H-quinoline-3-carboxamide]
25 to 100% |  | O=C(Nc1ccccc1-c1ccccc1)c1c[nH]c2cc(C(F)(F)F)ccc2c1=O [Compound 469, 4-oxo-N-(2-phenylphenyl)-7-(trifluoromethyl)-1H-quinoline-3-carboxamide]
25 to 100% |  | CCc1ccccc1NC(=O)c1c[nH]c2ccccc2c1=O [Compound 72, N-(2-ethylphenyl)-4-oxo-1H-quinoline-3-carboxamide]
25 to 100% |  | CNc1cc(NC(=O)c2c[nH]c3ccccc3c2=O)ccc1C(C)(C)C [Compound 484, N-(3-methylamino-4-tert-butyl-phenyl)-4-oxo-1H-quinoline-3-carboxamide]
> 100% |  | CCOc1cccc(-c2ccccc2NC(=O)c2c[nH]c3ccccc3c2=O)c1 [Compound 306, N-[2-(3-ethoxyphenyl)phenyl]-4-oxo-1H-quinoline-3-carboxamide]
> 100% |  | O=C(Nc1cc(O)c(C2CCCCC2)cc1C(F)(F)F)c1c[nH]c2ccccc2c1=O [Compound 619, N-[4-cyclohexyl-5-hydroxy-2-(trifluoromethyl)phenyl]-4-oxo-1H-quinoline-3-carboxamide]
25 to 100% |  | CC1CCN(c2ccc(NC(=O)c3c[nH]c4ccccc4c3=O)c(C(F)(F)F)c2)C1 (stereo not shown) [Compound 555, N-[4-(3-methylpyrrolidin-1-yl)-2-(trifluoromethyl)phenyl]-4-oxo-1H-quinoline-3-carboxamide]
25 to 100% |  | Cc1ccc2[nH]cc(C(=O)Nc3cc(O)c(C(C)(C)C)cc3C(C)(C)C)c(=O)c2c1 [Compound 688, N-(5-hydroxy-2,4-ditert-butyl-phenyl)-6-methyl-4-oxo-1H-quinoline-3-carboxamide]
25 to 100% |  | O=C(Nc1ccc(N2CCC[C@@H]2CO)cc1C(F)(F)F)c1c[nH]c2ccccc2c1=O [Compound 670, (R)-N-(4-(2-(hydroxymethyl)pyrrolidin-1-yl)-2-(trifluoromethyl)phenyl)-4-oxo-1,4-dihydroquinoline-3-carboxamide]
25 to 100% |  | COC(=O)c1ccc(-c2ccccc2NC(=O)c2c[nH]c3ccccc3c2=O)cc1 [Compound 166, 4-[2-[(4-oxo-1H-quinolin-3-yl)carbonylamino]phenyl]benzoic acid methyl ester]
25 to 100% |  | O=C(Nc1c(Cl)cccc1Cl)c1c[nH]c2ccccc2c1=O [Compound 317, N-(2,6-dichlorophenyl)-4-oxo-1H-quinoline-3-carboxamide]
25 to 100% |  | N#Cc1c(Cl)cccc1NC(=O)c1c[nH]c2ccccc2c1=O [Compound 222, N-(3-chloro-2-cyano-phenyl)-4-oxo-1H-quinoline-3-carboxamide]
25 to 100% |  | O=C(Nc1cccc(O)c1)c1c[nH]c2ccccc2c1=O [Compound 144, N-(3-hydroxyphenyl)-4-oxo-1H-quinoline-3-carboxamide]
